{"source": "paper PMC6934184", "about": "“Selective DNA-PKcs inhibition extends the therapeutic index of localized radiotherapy and chemotherapy” (The Journal of Clinical Investigation, 2019)", "target": "T1, TTK (Homo sapiens, UniProt P33981)", "T1 construct": "purchased Thermo Fisher Scientific (Life Technologies) SelectScreen", "T1 sequence (P33981 whole entry)": "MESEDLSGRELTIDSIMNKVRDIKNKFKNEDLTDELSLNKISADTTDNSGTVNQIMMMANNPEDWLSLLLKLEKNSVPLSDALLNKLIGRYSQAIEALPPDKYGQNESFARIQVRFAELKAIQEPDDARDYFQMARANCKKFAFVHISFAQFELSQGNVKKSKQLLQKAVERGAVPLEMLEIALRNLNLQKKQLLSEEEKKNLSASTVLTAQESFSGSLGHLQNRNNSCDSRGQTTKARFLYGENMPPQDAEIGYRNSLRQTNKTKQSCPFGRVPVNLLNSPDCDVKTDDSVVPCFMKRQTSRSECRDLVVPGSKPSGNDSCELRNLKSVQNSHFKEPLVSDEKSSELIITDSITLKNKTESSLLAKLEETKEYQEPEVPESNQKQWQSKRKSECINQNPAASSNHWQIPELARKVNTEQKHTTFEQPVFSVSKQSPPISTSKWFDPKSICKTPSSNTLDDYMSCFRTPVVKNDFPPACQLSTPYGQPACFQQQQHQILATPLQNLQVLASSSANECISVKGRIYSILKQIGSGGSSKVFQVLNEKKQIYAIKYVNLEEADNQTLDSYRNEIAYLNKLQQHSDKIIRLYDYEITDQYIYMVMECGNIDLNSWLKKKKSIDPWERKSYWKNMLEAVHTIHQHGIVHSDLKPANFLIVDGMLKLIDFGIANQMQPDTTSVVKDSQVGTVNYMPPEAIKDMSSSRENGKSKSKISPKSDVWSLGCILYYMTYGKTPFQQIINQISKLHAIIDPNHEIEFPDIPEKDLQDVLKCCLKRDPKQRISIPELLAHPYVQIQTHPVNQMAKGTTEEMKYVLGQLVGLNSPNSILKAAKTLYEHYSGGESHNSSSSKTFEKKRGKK", "experiment": "SelectScreen LanthaScreen", "assay_type": "binding", "settings": "read-out: % displacement", "procedure,_shortened": "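SelectScreen broad panel; activity (Z'LYTE, Adapta) plus binding formats. ATP: Km app for CSF1R Z'LYTE; 10 for CAMK1 Adapta. Readout = % per kinase.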"}
{"smiles": "CN(C(=O)CN1CCOCC1)c1ccc2sc3c(-c4cccc5c(=O)cc(N6CC7CCC(C6)O7)oc45)cccc3c2c1", "note": "[NU5455]", "values": [{"measurement": "inhibition at 1 µM", "value": -0.7, "unit": "%"}]}
